Among the data in ChEMBL document CHEMBL5715954, “Silencing c-Myc translation as a therapeutic strategy through targeting PI3Kδ and CK1ε in hematological malignancies” (Blood, 2017) are Activity values, retold here.

Each structure is given as a SMILES string.

Set-up in all cases: scale not given: the % may be the effect or the level left
Experiment [1] addresses Tyrosine-protein kinase ABL1 (Homo sapiens) (UniProt P00519). The experiment in a line: Inhibition of human ABL1 assessed as enzyme activity at 1 uM using EAIYAAPFAKKK as substrate preincubated for 20 mins followed by [gamma-33P]-ATP addition and measured after 120 mins by radiometric Hot-SpotSM Kinase assay relative to control.
Experiment [2] has as its target Bone morphogenetic protein receptor type-1A (Homo sapiens) (UniProt P36894). As to the kind of experiment: Inhibition of human ALK3 assessed as enzyme activity at 1 uM using casein as substrate preincubated for 20 mins followed by [gamma-33P]-ATP addition and measured after 120 mins by radiometric Hot-SpotSM Kinase assay relative to control.
Experiment [3] has as its target Mast/stem cell growth factor receptor Kit (Homo sapiens) (UniProt P10721). As to the kind of experiment: Inhibition of human c-Kit assessed as enzyme activity at 1 uM using poly[Glu:Tyr] (4:1) as substrate preincubated for 20 mins followed by [gamma-33P]-ATP addition and measured after 120 mins by radiometric Hot-SpotSM Kinase assay relative to control.
Experiment [4] has as its target T1, Dual specificity tyrosine-phosphorylation-regulated kinase 3 (Homo sapiens) (UniProt O43781).
T1 sequence (whole entry): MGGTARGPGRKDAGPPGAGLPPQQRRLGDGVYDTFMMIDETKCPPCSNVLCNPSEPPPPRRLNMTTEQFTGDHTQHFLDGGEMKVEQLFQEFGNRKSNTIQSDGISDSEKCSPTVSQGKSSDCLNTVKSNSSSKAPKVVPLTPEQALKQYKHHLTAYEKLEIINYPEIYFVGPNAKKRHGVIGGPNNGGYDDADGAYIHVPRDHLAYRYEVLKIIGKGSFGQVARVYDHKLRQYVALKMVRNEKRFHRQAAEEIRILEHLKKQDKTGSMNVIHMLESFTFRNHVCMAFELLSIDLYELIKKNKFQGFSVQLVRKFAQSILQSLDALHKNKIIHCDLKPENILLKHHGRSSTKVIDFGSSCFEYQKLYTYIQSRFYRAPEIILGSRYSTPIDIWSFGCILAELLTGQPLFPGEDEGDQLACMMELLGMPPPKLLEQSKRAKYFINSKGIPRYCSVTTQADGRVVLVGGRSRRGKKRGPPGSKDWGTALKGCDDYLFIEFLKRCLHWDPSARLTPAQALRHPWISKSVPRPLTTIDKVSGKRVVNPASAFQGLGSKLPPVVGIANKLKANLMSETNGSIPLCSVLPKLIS
The experiment in a line: Inhibition of human DYRK3 assessed as enzyme activity at 1 uM using RRRFRPASPLRGPPK as substrate preincubated for 20 mins followed by [gamma-33P]-ATP addition and measured after 120 mins by radiometric Hot-SpotSM Kinase assay relative to control.

The target in experiment [5] is Serine/threonine-protein kinase Nek4 (Homo sapiens) (UniProt P51957). As to the kind of experiment: Inhibition of human NEK4 assessed as enzyme activity at 1 uM using myelin basic protein as substrate preincubated for 20 mins followed by [gamma-33P]-ATP addition and measured after 120 mins by radiometric Hot-SpotSM Kinase assay relative to control.
Chain of Serine/threonine-protein kinase Nek4 (Homo sapiens) (P51957 whole entry, looked up): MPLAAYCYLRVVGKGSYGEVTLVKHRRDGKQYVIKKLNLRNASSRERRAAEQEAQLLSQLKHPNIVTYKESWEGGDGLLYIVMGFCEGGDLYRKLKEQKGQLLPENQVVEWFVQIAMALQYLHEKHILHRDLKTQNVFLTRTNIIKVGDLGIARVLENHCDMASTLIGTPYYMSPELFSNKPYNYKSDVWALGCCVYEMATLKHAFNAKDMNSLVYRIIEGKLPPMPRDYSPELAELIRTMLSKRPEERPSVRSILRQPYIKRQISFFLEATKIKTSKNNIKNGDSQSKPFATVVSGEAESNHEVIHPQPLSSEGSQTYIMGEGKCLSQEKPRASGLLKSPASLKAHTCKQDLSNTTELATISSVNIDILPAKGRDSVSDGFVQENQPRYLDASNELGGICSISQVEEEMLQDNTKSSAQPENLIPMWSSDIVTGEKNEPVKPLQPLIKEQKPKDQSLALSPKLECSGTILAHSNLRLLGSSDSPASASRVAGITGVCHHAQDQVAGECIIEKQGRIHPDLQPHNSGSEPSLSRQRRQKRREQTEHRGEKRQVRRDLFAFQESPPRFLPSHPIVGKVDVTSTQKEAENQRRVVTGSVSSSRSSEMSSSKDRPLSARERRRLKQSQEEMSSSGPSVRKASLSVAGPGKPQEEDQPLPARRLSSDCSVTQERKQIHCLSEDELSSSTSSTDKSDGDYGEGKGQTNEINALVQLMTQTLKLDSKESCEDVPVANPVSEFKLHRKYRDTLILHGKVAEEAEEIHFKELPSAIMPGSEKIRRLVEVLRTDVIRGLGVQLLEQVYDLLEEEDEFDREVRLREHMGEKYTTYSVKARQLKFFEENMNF
Experiment [6] deals with T2, Serine/threonine-protein kinase D2 (Homo sapiens) (UniProt Q9BZL6).
T2 sequence (whole entry): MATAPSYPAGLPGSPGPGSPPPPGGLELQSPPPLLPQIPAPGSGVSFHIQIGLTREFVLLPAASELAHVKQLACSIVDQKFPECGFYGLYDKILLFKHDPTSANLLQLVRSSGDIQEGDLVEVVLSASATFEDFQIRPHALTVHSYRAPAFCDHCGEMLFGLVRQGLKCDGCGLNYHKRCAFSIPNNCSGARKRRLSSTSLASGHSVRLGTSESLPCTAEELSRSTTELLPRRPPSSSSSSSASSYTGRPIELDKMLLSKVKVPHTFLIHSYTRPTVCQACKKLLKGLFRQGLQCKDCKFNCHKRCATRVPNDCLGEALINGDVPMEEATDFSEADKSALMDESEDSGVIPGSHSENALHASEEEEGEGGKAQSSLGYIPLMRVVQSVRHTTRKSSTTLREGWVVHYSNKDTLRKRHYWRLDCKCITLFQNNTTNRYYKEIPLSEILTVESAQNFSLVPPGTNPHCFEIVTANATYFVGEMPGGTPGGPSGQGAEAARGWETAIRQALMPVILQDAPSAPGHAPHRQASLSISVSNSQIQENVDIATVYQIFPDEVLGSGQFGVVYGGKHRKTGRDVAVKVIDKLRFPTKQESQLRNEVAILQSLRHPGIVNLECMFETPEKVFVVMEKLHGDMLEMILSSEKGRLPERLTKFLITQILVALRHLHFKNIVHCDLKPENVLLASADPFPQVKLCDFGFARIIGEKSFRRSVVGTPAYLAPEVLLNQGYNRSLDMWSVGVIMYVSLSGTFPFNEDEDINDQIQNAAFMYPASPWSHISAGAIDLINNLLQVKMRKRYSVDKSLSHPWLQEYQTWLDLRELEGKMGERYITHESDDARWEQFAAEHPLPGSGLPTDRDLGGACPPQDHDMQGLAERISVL
As to the kind of experiment: Inhibition of human PKD2 assessed as enzyme activity at 1 uM using KKLNRTLSVA as substrate preincubated for 20 mins followed by [gamma-33P]-ATP addition and measured after 120 mins by radiometric Hot-SpotSM Kinase assay relative to control.

In experiment [7] the target is T3, Serine/threonine-protein kinase TBK1 (Homo sapiens) (UniProt Q9UHD2).
T3 sequence (whole entry): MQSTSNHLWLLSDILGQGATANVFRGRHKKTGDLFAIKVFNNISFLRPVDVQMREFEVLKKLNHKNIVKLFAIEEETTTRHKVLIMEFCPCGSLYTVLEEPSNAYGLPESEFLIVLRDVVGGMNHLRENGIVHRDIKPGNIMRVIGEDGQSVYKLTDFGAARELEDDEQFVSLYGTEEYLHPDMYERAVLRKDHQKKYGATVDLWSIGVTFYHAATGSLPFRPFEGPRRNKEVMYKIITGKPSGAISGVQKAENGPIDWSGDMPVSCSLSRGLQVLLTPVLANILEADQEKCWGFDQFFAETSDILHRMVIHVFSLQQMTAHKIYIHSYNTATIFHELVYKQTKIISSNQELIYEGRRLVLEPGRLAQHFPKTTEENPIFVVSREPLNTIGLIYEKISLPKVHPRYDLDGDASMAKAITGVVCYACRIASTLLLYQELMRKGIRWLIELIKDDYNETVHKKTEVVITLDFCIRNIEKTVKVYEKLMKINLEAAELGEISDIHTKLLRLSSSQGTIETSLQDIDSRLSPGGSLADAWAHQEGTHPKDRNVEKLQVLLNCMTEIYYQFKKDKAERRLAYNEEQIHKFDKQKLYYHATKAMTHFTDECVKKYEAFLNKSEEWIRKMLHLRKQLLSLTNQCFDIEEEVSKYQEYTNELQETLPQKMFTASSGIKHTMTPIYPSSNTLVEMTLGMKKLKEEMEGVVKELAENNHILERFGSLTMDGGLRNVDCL
The experiment in a line: Inhibition of human TBK1 assessed as enzyme activity at 1 uM using myelin basic protein as substrate preincubated for 20 mins followed by [gamma-33P]-ATP addition and measured after 120 mins by radiometric Hot-SpotSM Kinase assay relative to control.

Chain of Bone morphogenetic protein receptor type-1A (Homo sapiens) (P36894 whole entry): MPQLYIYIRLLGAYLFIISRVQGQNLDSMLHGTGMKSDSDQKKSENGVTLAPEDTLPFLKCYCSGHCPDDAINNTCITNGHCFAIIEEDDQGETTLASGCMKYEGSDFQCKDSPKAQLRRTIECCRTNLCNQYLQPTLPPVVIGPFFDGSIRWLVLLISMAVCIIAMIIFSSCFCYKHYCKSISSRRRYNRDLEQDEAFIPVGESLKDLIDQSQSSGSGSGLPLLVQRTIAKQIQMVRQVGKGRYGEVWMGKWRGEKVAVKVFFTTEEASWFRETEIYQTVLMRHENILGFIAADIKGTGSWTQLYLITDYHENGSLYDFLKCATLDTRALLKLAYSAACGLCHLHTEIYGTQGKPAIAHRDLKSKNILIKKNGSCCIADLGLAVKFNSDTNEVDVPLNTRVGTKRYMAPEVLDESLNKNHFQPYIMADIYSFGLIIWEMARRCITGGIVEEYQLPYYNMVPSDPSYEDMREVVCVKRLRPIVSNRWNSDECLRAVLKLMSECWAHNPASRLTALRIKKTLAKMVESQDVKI
Chain of Mast/stem cell growth factor receptor Kit (Homo sapiens) (P10721 whole entry): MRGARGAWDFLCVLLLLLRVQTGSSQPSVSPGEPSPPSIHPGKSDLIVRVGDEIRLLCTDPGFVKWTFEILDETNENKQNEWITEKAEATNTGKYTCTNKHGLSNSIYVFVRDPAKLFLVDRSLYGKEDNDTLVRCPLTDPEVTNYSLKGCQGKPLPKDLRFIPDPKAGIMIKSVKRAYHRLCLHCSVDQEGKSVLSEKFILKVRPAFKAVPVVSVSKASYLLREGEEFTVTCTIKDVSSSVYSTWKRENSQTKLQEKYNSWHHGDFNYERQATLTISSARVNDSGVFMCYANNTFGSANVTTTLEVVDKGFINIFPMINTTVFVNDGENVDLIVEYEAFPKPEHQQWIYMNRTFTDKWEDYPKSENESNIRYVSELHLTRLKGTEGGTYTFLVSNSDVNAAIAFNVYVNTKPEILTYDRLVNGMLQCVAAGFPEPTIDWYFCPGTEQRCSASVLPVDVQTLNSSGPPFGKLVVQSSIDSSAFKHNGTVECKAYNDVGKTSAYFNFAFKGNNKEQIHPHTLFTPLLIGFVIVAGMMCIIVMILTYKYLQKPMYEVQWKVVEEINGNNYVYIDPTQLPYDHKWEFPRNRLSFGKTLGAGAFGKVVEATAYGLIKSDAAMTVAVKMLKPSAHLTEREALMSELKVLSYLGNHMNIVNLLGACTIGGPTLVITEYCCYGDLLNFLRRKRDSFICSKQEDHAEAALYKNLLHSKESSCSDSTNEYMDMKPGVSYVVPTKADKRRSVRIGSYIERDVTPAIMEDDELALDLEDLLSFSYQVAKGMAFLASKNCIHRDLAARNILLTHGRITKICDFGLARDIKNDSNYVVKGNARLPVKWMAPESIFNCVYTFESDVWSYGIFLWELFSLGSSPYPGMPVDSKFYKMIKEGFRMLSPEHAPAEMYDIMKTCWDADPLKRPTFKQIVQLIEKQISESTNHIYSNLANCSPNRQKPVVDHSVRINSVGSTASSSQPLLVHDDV
Chain of Tyrosine-protein kinase ABL1 (Homo sapiens) (P00519 whole entry): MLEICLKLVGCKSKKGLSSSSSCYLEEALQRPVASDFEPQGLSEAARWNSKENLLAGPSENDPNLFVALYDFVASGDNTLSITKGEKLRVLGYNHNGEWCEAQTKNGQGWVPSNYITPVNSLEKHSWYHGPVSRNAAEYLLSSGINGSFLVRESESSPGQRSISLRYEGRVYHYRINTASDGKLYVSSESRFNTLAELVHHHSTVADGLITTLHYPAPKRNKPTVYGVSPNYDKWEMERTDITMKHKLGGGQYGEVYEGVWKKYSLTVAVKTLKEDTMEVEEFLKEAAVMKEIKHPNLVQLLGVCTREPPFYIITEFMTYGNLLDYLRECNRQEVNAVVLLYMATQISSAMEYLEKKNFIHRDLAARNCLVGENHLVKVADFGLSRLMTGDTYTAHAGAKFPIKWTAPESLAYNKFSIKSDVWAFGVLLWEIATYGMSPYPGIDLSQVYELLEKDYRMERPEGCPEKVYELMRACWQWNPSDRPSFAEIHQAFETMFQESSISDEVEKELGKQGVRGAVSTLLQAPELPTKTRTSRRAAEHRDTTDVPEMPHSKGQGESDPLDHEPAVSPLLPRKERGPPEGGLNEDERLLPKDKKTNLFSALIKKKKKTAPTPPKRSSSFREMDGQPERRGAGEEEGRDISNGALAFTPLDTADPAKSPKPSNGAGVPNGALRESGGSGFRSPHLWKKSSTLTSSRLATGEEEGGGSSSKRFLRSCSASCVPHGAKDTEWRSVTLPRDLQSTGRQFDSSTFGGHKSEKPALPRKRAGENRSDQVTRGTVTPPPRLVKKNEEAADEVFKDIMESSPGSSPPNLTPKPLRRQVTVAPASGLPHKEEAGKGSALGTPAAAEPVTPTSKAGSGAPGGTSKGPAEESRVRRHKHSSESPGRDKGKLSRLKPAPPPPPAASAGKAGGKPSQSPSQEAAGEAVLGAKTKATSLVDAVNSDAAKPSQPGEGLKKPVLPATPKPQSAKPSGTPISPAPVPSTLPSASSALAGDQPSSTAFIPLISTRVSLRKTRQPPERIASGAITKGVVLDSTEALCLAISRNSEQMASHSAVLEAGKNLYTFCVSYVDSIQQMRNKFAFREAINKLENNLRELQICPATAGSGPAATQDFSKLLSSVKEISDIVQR

As for `C[C@H](Nc1ncnc2nc[nH]c12)c1cc2cccc(Cl)c2c(=O)n1-c1ccccc1`, the Activity worked out at 97.2% in experiment [1]; 101% in experiment [2]; 103% in experiment [3]; 97.8% in experiment [4]; 92.2% in experiment [5]; 99.2% in experiment [6]. The Activity in experiment [7] turned out to be 94.4%.
For `CC[C@H](Nc1ncnc2[nH]cnc12)c1nc2cccc(F)c2c(=O)n1-c1ccccc1`, the Activity amounted to 99.5% in experiment [1]; 105% in experiment [2]; 99.4% in experiment [3]; 96.9% in experiment [4]; 95.5% in experiment [5]; 101% in experiment [6]. Also, in experiment [7], the Activity came to 89.6%.
Regarding `CC(C)Oc1ccc(-c2nn([C@@H](C)c3oc4ccc(F)cc4c(=O)c3-c3cccc(F)c3)c3ncnc(N)c23)cc1F` [UMBRALISIB], the Activity in experiment [1] came out at 95.1%; in experiment [2] it was 89.5%; in experiment [3], 97.4%; in experiment [4] it was 96.9%; in experiment [5], 87.8%; in experiment [6] it was 101%. The Activity in experiment [7] is 93.9%.
